The structures appear in SMILES notation. The source made the active and inactive calls. The rule behind the calls is not given here.

The results in this text go back to ChEMBL document CHEMBL1154879, “Discovery of (thienopyrimidin-2-yl)aminopyrimidines as potent, selective, and orally available pan-PI3-kinase and dual pan-PI3-kinase/mTOR inhibitors for the treatment of cancer” (J Med Chem, 2010).

The target of data set [1] is Phosphatidylinositol 4-phosphate 3-kinase C2 domain-containing subunit beta (Homo sapiens) (UniProt O00750). The experiment in a line: Inhibition of PIK3C2beta at 1 uM.
The target in data set [2] is Phosphatidylinositol 3-kinase catalytic subunit type 3 (Homo sapiens) (UniProt Q8NEB9). In words: Inhibition of VPS34 at 1 uM.
The test system of data set [3] is Mus musculus. The experiment in a line: Inhibition of PI3K/Akt/mTOR pathway signaling in PI3Kalpha mutant expressing human MCF7.1 cells xenografted nu/nu mouse assessed as inhibition of Akt Ser473 phosphorylation at 12.5 mg/kg, po qd for 21 days measured 1 hr after last administered dose on day 21 by electrochemiluminescence assay. The data set is classed as functional. In general terms: Xenograft models place foreign cells or tissue in a host animal.

Data set [4] concerns Mus musculus. The experiment in a line: Inhibition of PI3K/Akt/mTOR pathway signaling in PI3Kalpha mutant expressing human MCF7.1 cells xenografted nu/nu mouse assessed as inhibition of Akt Ser473 phosphorylation at 12.5 mg/kg, po qd for 21 days measured 4 hrs after last administered dose on day 21 by electrochemiluminescence assay. The data set is classed as functional.
The test system of data set [5] is Mus musculus. The experiment in a line: Inhibition of PI3K/Akt/mTOR pathway signaling in PI3Kalpha mutant expressing human MCF7.1 cells xenografted nu/nu mouse assessed as inhibition of Pras40 Thr246 phosphorylation at 12.5 mg/kg, po qd for 21 days measured 4 hrs after last administered dose on day 21 by ELISA. The data set is classed as functional.
The subject of data set [6] is Mus musculus. The experiment in a line: Toxicity in human MCF7.1 cells expressing PI3Kalpha mutant xenografted nu/nu mouse assessed as body weight loss at 25 mg/kg, po qd for 21 days. The settings on record: in vivo, 504 h. The data set is classed as organism-based. The arrangement: dose 25 mg/kg, route oral.
In data set [7] the test system is Mus musculus. In words: Inhibition of PI3K/Akt/mTOR pathway signaling in PI3Kalpha mutant expressing human MCF7.1 cells xenografted nu/nu mouse assessed as inhibition of S6RP Ser235/236 phosphorylation at 6.25 mg/kg, po qd for 21 days measured 1 hr after last administered dose on day 21 by electrochemiluminescence assay. The data set is classed as functional.
Data set [8] can be described thus: Half life in nu/nu mouse at 5 mg/kg, po. The data set is classed as ADME, organism-based. The arrangement: dose 5 mg/kg, route oral. The following applies: in vivo.
For the next data set, the target named is T1, Aurora kinase A (Homo sapiens, UniProt O14965).
T1 sequence (O14965 whole entry): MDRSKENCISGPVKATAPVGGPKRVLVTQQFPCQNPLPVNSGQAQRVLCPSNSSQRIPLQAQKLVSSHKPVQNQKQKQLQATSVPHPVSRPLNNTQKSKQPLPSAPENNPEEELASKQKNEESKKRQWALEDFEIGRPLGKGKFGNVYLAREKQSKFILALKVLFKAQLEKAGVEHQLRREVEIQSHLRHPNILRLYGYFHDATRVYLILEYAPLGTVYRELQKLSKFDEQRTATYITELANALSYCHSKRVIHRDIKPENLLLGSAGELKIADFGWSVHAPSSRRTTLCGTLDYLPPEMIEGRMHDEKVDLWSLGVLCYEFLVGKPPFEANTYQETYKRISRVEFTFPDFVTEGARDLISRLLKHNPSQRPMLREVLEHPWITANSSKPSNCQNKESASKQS
The experiment in a line: Inhibition of Aurora A kinase.

Data set [9] has as its target Mitogen-activated protein kinase kinase kinase 9 (Homo sapiens, UniProt P80192). The experiment in a line: Inhibition of MLK1.
The subject of a further data set is PC-3. In words: Antiproliferative activity against human PC3 cells deficient in PTEN in after 3 to 4 days. The data set is classed as functional, cell-based.
Data set [10] is described as follows: Clearance in nu/nu mouse at 1 mg/kg, iv. The data set is classed as ADME, organism-based. The arrangement: dose 1 mg/kg, route intravenous. The settings on record: in vivo.
The nature of data set [11]: Volume of distribution at steady state in nu/nu mouse at 1 mg/kg, iv. The data set is classed as ADME, organism-based. The arrangement: dose 1 mg/kg, route intravenous. The following applies: in vivo, read-out: Vdss.
Data set [12] is described as follows: Protein binding in mouse plasma. The data set is classed as ADME, cell-free. The settings on record: read-out: PPB (converted).
Data set [13] addresses Phosphatidylinositol 4,5-bisphosphate 3-kinase catalytic subunit alpha isoform (Homo sapiens, UniProt P42336).
The target of data set [14] is T2, Phosphatidylinositol 4,5-bisphosphate 3-kinase catalytic subunit delta isoform (Homo sapiens, UniProt O00329).
T2 sequence (O00329 whole entry): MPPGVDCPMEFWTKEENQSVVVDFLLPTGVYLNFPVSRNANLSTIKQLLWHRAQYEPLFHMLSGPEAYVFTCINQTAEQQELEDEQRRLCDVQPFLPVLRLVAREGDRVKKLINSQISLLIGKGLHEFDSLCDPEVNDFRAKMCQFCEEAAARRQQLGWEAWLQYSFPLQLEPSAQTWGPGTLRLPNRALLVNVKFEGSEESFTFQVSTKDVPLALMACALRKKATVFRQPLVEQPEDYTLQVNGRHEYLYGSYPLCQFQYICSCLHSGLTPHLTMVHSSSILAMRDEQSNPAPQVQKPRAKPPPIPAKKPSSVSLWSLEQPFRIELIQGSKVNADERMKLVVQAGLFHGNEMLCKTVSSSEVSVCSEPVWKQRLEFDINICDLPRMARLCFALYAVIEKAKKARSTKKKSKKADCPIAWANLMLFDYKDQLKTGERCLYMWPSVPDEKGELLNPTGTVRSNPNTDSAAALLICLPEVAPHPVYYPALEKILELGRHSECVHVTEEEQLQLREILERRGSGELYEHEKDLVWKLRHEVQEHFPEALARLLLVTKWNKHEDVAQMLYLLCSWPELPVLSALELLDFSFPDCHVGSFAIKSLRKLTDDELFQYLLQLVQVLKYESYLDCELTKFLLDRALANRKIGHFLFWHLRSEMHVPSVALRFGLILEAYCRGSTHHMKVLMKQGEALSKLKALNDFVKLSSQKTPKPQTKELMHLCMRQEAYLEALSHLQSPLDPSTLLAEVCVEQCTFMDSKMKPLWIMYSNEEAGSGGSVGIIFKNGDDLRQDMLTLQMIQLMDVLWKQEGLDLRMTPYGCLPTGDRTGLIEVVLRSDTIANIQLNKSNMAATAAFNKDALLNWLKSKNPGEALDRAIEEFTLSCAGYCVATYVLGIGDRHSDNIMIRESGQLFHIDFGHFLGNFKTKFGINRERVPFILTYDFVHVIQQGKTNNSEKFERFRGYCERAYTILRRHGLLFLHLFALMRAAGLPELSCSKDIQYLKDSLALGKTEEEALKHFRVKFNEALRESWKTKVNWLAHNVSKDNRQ

Data set [15] concerns the target Phosphatidylinositol 4,5-bisphosphate 3-kinase catalytic subunit gamma isoform (Homo sapiens, UniProt P48736).

Chain of Phosphatidylinositol 4,5-bisphosphate 3-kinase catalytic subunit alpha isoform (P42336 whole entry, canonical isoform): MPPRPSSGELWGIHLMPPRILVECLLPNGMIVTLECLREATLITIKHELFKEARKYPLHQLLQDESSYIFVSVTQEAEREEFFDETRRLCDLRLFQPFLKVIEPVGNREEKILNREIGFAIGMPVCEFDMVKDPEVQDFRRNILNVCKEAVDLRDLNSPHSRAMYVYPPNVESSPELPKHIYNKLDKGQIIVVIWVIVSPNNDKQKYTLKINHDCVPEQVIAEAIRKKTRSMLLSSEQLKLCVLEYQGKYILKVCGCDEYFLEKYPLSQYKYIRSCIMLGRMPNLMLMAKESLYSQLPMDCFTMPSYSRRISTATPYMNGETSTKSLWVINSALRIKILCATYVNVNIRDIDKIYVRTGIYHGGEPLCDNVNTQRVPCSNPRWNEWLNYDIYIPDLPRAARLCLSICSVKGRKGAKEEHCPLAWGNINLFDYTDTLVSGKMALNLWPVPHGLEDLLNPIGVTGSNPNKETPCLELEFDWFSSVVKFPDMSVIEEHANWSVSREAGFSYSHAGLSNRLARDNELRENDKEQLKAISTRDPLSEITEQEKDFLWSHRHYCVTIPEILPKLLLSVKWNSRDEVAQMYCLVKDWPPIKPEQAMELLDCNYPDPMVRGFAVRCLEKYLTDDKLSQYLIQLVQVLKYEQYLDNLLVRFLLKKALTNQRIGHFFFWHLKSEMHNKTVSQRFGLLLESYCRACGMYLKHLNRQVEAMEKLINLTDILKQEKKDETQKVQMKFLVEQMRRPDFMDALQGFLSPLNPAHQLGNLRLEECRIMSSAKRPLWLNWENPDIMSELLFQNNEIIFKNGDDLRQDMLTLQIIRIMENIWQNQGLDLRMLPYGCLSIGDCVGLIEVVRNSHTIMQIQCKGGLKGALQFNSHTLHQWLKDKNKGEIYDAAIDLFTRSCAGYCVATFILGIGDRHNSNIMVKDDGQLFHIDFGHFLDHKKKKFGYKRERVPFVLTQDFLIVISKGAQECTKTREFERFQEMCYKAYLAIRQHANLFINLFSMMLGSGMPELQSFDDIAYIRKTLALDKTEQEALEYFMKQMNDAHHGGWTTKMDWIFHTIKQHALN
Chain of Mitogen-activated protein kinase kinase kinase 9 (P80192 whole entry): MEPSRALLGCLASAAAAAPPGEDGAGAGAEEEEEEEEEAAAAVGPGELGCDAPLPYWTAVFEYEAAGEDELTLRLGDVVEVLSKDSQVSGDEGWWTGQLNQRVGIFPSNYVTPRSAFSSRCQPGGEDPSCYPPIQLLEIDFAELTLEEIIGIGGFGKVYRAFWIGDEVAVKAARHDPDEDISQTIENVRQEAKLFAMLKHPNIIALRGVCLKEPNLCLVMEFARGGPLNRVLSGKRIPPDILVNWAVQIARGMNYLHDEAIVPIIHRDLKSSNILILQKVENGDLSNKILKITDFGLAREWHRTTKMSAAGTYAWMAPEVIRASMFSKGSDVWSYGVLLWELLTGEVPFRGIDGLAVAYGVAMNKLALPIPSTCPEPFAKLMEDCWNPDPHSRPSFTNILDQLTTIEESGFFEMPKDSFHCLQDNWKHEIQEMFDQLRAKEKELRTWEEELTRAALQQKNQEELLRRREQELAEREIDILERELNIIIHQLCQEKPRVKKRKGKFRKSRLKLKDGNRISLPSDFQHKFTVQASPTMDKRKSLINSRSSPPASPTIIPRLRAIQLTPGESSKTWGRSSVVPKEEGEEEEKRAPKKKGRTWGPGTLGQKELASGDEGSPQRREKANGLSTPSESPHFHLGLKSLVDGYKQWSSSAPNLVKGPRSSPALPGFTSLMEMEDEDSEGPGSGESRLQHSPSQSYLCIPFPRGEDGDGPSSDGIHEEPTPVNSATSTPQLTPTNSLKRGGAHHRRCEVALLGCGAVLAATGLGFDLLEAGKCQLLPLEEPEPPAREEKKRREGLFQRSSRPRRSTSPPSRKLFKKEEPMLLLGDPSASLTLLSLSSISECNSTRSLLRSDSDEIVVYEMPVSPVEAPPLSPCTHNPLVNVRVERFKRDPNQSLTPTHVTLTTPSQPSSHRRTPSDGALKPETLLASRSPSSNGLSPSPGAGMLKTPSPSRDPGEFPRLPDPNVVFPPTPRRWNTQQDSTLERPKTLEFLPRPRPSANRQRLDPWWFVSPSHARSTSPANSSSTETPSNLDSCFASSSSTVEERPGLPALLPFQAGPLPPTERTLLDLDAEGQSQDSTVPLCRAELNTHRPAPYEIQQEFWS
Chain of Phosphatidylinositol 3-kinase catalytic subunit type 3 (Homo sapiens) (Q8NEB9 whole entry): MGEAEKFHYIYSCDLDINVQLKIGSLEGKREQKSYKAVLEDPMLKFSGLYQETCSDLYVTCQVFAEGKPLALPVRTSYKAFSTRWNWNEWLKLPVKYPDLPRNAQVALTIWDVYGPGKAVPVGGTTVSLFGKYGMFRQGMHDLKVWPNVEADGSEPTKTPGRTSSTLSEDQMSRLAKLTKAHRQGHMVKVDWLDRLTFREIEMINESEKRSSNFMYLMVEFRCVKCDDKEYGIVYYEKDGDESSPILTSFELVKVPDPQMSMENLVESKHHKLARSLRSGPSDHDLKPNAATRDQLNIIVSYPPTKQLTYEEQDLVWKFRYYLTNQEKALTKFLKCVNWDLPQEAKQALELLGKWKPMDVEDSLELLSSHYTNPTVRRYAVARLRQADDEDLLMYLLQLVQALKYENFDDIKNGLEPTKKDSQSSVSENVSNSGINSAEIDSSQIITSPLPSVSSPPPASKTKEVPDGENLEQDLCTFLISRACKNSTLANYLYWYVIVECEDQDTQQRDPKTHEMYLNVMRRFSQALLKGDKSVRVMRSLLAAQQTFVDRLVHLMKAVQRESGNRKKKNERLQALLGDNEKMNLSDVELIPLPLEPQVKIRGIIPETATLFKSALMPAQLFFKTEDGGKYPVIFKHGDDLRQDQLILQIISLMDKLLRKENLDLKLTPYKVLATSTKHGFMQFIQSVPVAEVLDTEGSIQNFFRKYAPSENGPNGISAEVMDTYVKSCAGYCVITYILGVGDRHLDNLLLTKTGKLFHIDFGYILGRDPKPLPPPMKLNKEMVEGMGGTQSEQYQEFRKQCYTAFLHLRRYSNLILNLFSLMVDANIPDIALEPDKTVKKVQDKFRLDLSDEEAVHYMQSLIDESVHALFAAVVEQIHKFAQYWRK
Chain of Phosphatidylinositol 4-phosphate 3-kinase C2 domain-containing subunit beta (Homo sapiens) (O00750 whole entry, the tested form may be a part): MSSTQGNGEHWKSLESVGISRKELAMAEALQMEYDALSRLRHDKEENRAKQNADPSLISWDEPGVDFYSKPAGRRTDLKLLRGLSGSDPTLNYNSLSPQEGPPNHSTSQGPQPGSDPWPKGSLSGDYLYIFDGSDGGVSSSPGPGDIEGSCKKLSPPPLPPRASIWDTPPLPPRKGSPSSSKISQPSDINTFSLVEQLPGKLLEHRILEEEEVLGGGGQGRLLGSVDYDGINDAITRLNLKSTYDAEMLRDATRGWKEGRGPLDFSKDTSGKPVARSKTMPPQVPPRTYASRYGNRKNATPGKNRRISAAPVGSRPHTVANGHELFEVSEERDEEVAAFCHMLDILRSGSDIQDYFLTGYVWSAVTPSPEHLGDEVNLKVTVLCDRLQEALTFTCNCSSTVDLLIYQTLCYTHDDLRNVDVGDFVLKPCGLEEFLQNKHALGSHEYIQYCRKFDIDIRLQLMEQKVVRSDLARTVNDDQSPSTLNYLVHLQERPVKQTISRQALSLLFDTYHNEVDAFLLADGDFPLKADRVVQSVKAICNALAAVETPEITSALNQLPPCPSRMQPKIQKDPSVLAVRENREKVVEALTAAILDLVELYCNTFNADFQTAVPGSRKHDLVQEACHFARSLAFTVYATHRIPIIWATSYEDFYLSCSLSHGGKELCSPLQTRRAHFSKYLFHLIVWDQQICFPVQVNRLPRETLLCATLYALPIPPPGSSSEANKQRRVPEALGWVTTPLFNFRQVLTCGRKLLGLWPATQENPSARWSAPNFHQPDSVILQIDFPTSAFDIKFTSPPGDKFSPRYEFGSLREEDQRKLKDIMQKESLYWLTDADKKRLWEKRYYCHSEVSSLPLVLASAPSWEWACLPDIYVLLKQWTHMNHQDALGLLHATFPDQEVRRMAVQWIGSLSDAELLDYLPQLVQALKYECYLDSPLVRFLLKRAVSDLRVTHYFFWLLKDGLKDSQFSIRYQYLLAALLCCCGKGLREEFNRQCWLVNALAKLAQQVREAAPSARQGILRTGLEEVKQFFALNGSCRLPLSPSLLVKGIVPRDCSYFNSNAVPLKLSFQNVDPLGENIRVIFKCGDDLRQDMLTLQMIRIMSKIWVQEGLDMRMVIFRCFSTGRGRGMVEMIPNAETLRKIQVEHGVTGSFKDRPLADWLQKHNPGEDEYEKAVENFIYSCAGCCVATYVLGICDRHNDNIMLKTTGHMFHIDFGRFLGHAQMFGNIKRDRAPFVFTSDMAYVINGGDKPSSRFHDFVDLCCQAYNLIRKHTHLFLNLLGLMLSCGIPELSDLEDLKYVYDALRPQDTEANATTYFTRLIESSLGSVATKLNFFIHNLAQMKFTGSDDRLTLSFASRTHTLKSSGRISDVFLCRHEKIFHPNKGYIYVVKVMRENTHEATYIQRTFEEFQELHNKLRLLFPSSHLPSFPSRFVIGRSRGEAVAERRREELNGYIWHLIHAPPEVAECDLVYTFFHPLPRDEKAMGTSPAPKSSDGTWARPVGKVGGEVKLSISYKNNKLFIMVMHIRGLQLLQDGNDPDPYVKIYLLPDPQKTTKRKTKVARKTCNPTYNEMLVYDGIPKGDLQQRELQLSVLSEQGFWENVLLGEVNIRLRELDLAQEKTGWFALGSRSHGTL

Consider `Cc1nc(N)ncc1-c1nc(N2CCOCC2)c2sc(C(C)(C)O)cc2n1`, for which the inhibition (commonly the relative decrease from the control value, in per cent) in data set [1] was determined as 81%. Further, the inhibition result in data set [2] was “inactive”. In addition, the inhibition in vivo (commonly how much of the control response was suppressed) at 12.5 mg/kg was found to be 83% in the data set with Mus musculus [3], 48% in the data set with Mus musculus [4] and 90% with Mus musculus [5]. In addition, the Activity result in the data set with Mus musculus [6] was “Non-toxic”. Further, the inhibition in vivo at 6.25 mg/kg with Mus musculus [7] was found to be 70%. For the same molecule, in data set [8], the half-life (in general, the time in which the quantity being followed falls by half) is 4.6 h. For the same molecule, the IC50 (as a rule, the concentration that gives 50% inhibition) against Aurora kinase A is more than 1000 nM; in data set [9], more than 1000 nM; in the data set with PC-3, 490 nM; in [13], 3.5 nM; in [14], 5.2 nM; in data set [15] it was 15 nM. For the same molecule, in [10], the clearance (as a rule, the rate of elimination divided by the concentration) was 51 mL/min/kg. Moreover, the Vd in data set [11] is 3 L/kg. Further, the fraction unbound in data set [12] is 0.27.
